# According to ChEMBL document CHEMBL3593180, “Lipocarbazole, an efficient lipid peroxidation inhibitor anchored in the membrane” (Bioorg Med Chem, 2015):
# Test: Antioxidant activity in soybean large unilamellar vesicles assessed as inhibition of AAPH-induced lipid peroxidation compound added prior to AAPH induction measured after 90 mins by UV-visible absorption spectrometric analysis
# Type: physicochemical
row,IC50 [nM],Molecule
1,1000,Cc1cc2[nH]c3ccccc3c2cc1O
2,800,VITAMIN E
3,160,CCCCCCCC/C=C/CCCCCCCc1c(C)c(O)cc2c1[nH]c1ccccc12

row,Molecule,IC50 [nM]
1,O=c1c(O)c(-c2ccc(O)c(O)c2)oc2cc(O)cc(O)c12 [QUERCETIN],200
